{
  "source": "patent EP2249825B1",
  "about": "“TREATMENT METHODS AND COMPOSITIONS FOR LUNG CANCER, ADENOCARCINOMA, AND OTHER MEDICAL CONDITIONS” (BIONUMERIK PHARMACEUTICALS, INC., priority 2008, dated 2009)",
  "key": {"[1]": {"tested_on": "non-small cell lung carcinoma (NSCLC) patients", "assay": "Japan Phase III Clinical Trial: other chemotherapy-related symptoms and toxicities", "type": "in vivo", "description": "(§1) As utilized herein, the term \"clinical trial\" or \"trial\", refers to the Japan Phase III Clinical Trial disclosed in the present invention which was utilized to show the ability of Tavocept™ (also referred to in the literature as disodium 2,2'-dithio-bis-ethane sulfonate, dimesna, or BNP7787) to prevent and/or reduce peripheral neuropathy induced by paclitaxel/cisplatin combination therapy. The incidence and severity of adverse reactions, time to their onset, etc. and the like, were compared between patients treated with Tavocept™ and those given a placebo using Quality of Life (QOL) questionnaires (i.e., Peripheral Neuropathy Questionnaire (PNQ^©) and CIPN-20)) and the National Cancer Institute - Common Toxicity Criteria (NCI-CTC). The effects of Tavocept™ on the Quality of Life (QOL) of patients under anticancer treatment was also evaluated using the QOL questionnaire, EORTC QLQ-C30. Whether or not Tavocept™ would affect the efficacy of paclitaxel/cisplatin combination therapy was also evaluated based on the response rate, aggravation-free survival period, and total survival period. In order to make all these evaluations, Tavocept™ (approximately14-22 g/m^2, most preferably approximately 18.4 g/m^2) or placebo (0.9% NaCl) was administered to non-small cell lung carcinoma (NSCLC) patients, including adenocarcinoma patients, under chemotherapy with paclitaxel (approximately 160-190 mg/m^2, most preferably approximately 175 mg/m^2) and cisplatin (approximately 60-100 mg/m^2, most preferably approximately 80 mg/m^2), every 3 weeks (and repeated for a minimum of 2 cycles).\n(§2) Data was recently unblinded from a multicenter double-blind randomized placebo-controlled Phase III clinical trial of the Formula (I) compound Tavocept™ (also known as BNP7787, disodium 2,2'-dithio-bis-ethane sulfonate, and dimesna) conducted in Japan (hereinafter the \"Japan Phase III Clinical Trial\") and involving patients with advanced non-small cell lung carcinoma (NSCLC) who received the chemotherapeutic drugs paclitaxel and cisplatin.\nPatients admitted into the trial included those patients without previous treatment (excluding surgical treatment, administration of Picibanil into the serous membrane, irradiation of 30% or less hematopoietic bone, or oral chemotherapeutic agents within 3 months of entry in the trial).\nThe Japan Phase III Clinical Trial was conducted as a double-blind study because peripheral neuropathy is diagnosed based on subjective symptoms evaluated through clinical interviews, lab tests, and the like. Accordingly, evaluations by both physicians and patients are highly important. […] A placebo was used as control since there is no established therapy or drug for preventing peripheral neuropathy. Because the severity of peripheral neuropathy is evaluated based on patients' reports (i.e., subjective symptoms), the Peripheral Neuropathy Questionnaire (PNQ^©) was used in primary evaluation. CIPN-20 and NCI-CTC were used in secondary evaluation. The incidence and severity of adverse reactions, time to their onset, etc. and the like, were compared between patients treated with Tavocept™ and those given a placebo using the aforementioned methods.\nIn order to conduct the present trial, Tavocept™ (approximately14-22 g/m^2, most preferably approximately 18.4 g/m^2) or placebo (0.9% NaCl) was administered to non-small cell lung carcinoma (NSCLC) patients receiving chemotherapy with paclitaxel (approximately 160-190 mg/m^2, most preferably approximately 175 mg/m^2) and cisplatin (approximately 60-100, most preferably approximately 80 mg/m^2), every 3 weeks (and repeated for a minimum of 2 cycles)."}, "[2]": {"tested_on": "patients with advanced non-small cell lung carcinoma (NSCLC)", "assay": "Japan Phase III Clinical Trial: chemotherapy-induced peripheral neuropathy (Peripheral Neuropathy Questionnaire, PNQ)", "type": "in vivo", "description": "As utilized herein, the term \"clinical trial\" or \"trial\", refers to the Japan Phase III Clinical Trial disclosed in the present invention which was utilized to show the ability of Tavocept™ (also referred to in the literature as disodium 2,2'-dithio-bis-ethane sulfonate, dimesna, or BNP7787) to prevent and/or reduce peripheral neuropathy induced by paclitaxel/cisplatin combination therapy. […] The effects of Tavocept™ on the Quality of Life (QOL) of patients under anticancer treatment was also evaluated using the QOL questionnaire, EORTC QLQ-C30. Whether or not Tavocept™ would affect the efficacy of paclitaxel/cisplatin combination therapy was also evaluated based on the response rate, aggravation-free survival period, and total survival period. […]\nThe Japan Phase III Clinical Trial was conducted as a double-blind study because peripheral neuropathy is diagnosed based on subjective symptoms evaluated through clinical interviews, lab tests, and the like. […] Because the severity of peripheral neuropathy is evaluated based on patients' reports (i.e., subjective symptoms), the Peripheral Neuropathy Questionnaire (PNQ^©) was used in primary evaluation. […]"}, "[3]": {"tested_on": "non-small cell lung carcinoma (NSCLC)", "assay": "Japan Phase III Clinical Trial: patient survival, NSCLC", "type": "in vivo, patients", "description": "as §1\nas §2, with “cisplatin. […]” for “cisplatin.”"}, "[4]": {"tested_on": "non-small cell lung carcinoma (NSCLC)", "assay": "Japan Phase III Clinical Trial: tumor response rate to chemotherapy", "type": "in vivo, patients", "conditions": "Tavocept arm with paclitaxel and cisplatin, Fig. 4", "description": "as §1, with “In order to make all these evaluations, Tavocept™ (approximately14-22 g/m^2, most preferably approximately 18.4 g/m^2) or placebo (0.9% NaCl) was administered to non-small cell lung carcinoma (NSCLC) patients, including adenocarcinoma patients, under chemotherapy with paclitaxel (approximately 160-190 mg/m^2, most preferably approximately 175 mg/m^2) and cisplatin (approximately 60-100 mg/m^2, most preferably approximately 80 mg/m^2), every 3 weeks (and repeated for a minimum of 2 cycles).” left out"}, "[5]": {"tested_on": "non-small cell lung carcinoma (NSCLC) patients", "assay": "Japan Phase III Clinical Trial: decrease in hemoglobin, erythrocyte and hematocrit levels", "type": "in vivo", "conditions": "Tavocept arm with paclitaxel and cisplatin, Fig. 3", "description": "as §1\nas §2, with “cisplatin. […]” for “cisplatin.”"}, "[6]": {"tested_on": "adenocarcinoma", "assay": "Japan Phase III Clinical Trial: patient survival, adenocarcinoma", "type": "in vivo, patients", "description": "as §1, with “In order to make all these evaluations, Tavocept™ (approximately14-22 g/m^2, most preferably approximately 18.4 g/m^2) or placebo (0.9% NaCl) was administered to non-small cell lung carcinoma (NSCLC) patients, including adenocarcinoma patients, under chemotherapy with paclitaxel (approximately 160-190 mg/m^2, most preferably approximately 175 mg/m^2) and cisplatin (approximately 60-100 mg/m^2, most preferably approximately 80 mg/m^2), every 3 weeks (and repeated for a minimum of 2 cycles).” left out"}, "[7]": {"conditions": "clinical trial population, summary statement"}},
  "data": [
    {"molecule": "O=S(=O)([O-])CCSSCCS(=O)(=O)[O-].[Na+].[Na+]", "note": "[Tavocept™, disodium 2,2'-dithio-bis-ethane sulfonate]", "values": [
      {"measurement": "chemotherapy-induced kidney damage", "setting": "[1]; [7]", "value": "medically-important reductions"},
      {"measurement": "chemotherapy-induced vomiting/emesis", "setting": "[1]; [7]", "value": "medically-important reductions"},
      {"measurement": "anorexia", "setting": "[1]; p = 0.0029, paclitaxel/Tavocept/cisplatin vs placebo regimen", "value": "reductions"},
      {"measurement": "fatigue", "setting": "[1]; p = 0.0163, paclitaxel/Tavocept/cisplatin vs placebo regimen", "value": "reductions"},
      {"measurement": "nausea/vomiting", "setting": "[1]; p = 0.0240, paclitaxel/Tavocept/cisplatin vs placebo regimen", "value": "reductions"},
      {"measurement": "diarrhea", "setting": "[1]; p = 0.0859, paclitaxel/Tavocept/cisplatin vs placebo regimen", "value": "reductions"},
      {"measurement": "insomnia", "setting": "[1]; p = 0.1108, paclitaxel/Tavocept/cisplatin vs placebo regimen", "value": "reductions"},
      {"measurement": "constipation", "setting": "[1]; p = 0.1114, paclitaxel/Tavocept/cisplatin vs placebo regimen", "value": "reductions"},
      {"measurement": "chemotherapy-induced peripheral neuropathy", "setting": "[2]; Tavocept and chemotherapy vs chemotherapy and placebo, summary statement", "value": "medically-important reductions"},
      {"measurement": "reduction in severe (Grade D or E) peripheral neuropathy", "setting": "[2]; paclitaxel/Tavocept/cisplatin regimen vs paclitaxel/saline placebo/cisplatin regimen, PNQ, Fig. 1", "value": "~50", "unit": "%"},
      {"measurement": "increase in median survival time", "setting": "[3]; NSCLC patients, paclitaxel/Tavocept/cisplatin vs paclitaxel/saline placebo/cisplatin, Fig. 5", "value": "up to 40 days"},
      {"measurement": "survival period", "setting": "[3]; female NSCLC patients, paclitaxel/Tavocept/cisplatin vs paclitaxel/saline placebo/cisplatin, Fig. 6", "value": "longer survival period"},
      {"measurement": "survival times", "setting": "[3]; patients with advanced NSCLC receiving Tavocept and chemotherapy, summary statement", "value": "increased survival times"},
      {"measurement": "response rate as measured by the IRC", "setting": "[4]; Independent Radiological Committee, placebo arm 28.6%", "value": 33.3, "unit": "%"},
      {"measurement": "Response Rate, as measured by physicians", "setting": "[4]; placebo arm 33.0%", "value": 41.9, "unit": "%"},
      {"measurement": "patients with Grade 3 (severe) decrease in hematocrit levels", "setting": "[5]; placebo arm 5", "value": 1, "unit": "patients"},
      {"measurement": "patients with Grade 3 (severe) decrease in red blood cell", "setting": "[5]; placebo arm 5", "value": 1, "unit": "patients"},
      {"measurement": "patients with Grade 3 (severe) decrease in hemoglobin", "setting": "[5]; placebo arm 8", "value": 2, "unit": "patients"},
      {"measurement": "increase in median survival time", "setting": "[6]; adenocarcinoma patients, paclitaxel/Tavocept/cisplatin vs paclitaxel/saline placebo/cisplatin, Fig. 7", "value": "up to 138 days"},
      {"measurement": "survival time", "setting": "[6]; patients with adenocarcinoma receiving Tavocept and chemotherapy, summary statement", "value": "medically-important increase"}
    ]}
  ]
}
